The target of the assay is T1, MET1MTase (Arabidopsis thaliana, UniProt P34881).
T1 construct: gene DMT1; residues 621-1534 (lacks RFTS1-2; acidic linker, BAH1-2, MTase), GST tag cleaved by HRV3C, E. coli Rosetta2 (DE3)
T1 sequence (P34881 621-1534): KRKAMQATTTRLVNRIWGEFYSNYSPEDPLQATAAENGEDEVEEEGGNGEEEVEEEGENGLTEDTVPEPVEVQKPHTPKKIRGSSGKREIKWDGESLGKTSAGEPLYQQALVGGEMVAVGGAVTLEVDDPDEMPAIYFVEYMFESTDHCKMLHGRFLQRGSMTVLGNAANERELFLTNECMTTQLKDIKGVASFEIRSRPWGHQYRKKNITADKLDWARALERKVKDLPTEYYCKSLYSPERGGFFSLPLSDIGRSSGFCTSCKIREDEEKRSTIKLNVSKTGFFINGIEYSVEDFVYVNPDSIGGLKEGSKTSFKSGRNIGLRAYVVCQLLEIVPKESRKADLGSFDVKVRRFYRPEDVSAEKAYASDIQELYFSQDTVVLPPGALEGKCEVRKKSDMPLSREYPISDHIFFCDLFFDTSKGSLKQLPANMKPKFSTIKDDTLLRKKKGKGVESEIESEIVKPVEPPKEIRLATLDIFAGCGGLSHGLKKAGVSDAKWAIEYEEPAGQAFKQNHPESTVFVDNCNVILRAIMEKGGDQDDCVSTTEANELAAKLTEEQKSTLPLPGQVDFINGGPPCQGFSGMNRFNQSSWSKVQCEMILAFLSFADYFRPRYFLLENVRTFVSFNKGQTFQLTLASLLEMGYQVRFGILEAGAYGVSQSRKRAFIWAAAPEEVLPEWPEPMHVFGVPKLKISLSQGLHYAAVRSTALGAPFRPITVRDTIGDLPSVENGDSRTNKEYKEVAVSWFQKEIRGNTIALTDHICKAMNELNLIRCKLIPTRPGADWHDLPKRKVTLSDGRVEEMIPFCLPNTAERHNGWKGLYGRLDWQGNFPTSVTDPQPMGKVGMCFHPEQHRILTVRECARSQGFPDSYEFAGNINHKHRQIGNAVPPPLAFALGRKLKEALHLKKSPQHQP
Nature of the assay: cryo-EM structure. In kind it is binding. To be noted: ternary complex with 12 bp hemimethylated DNA (5-fluorocytosine covalently bound to Cys1198); formed from added SAM; 2.74 Å.

As to `Nc1ncnc2c1ncn2[C@@H]1O[C@H](CSCC[C@H](N)C(=O)O)[C@@H](O)[C@H]1O` [SAH, S-adenosyl homocysteine], the cryo-EM structure result is “catalytic core containing S-adenosyl homocysteine (SAH, a methyl donor cofactor product) binding site”.

The values above are taken from PMC12474915 (Nature Communications, 2025).
